Source: patent US8748568B2, “Isolated A-type FHF N-terminal domain peptides and methods of use” (Research Foundation of The City University of New York, priority 2009, dated 2014)
Entries after “also recorded” stand apart in the source; their conditions may differ.

Assays:
[1] = system: cerebellar granule neurons; test: Voltage clamp and current clamp of cultured cerebellar granule neurons; type: cell-based, Mouse; conditions: 1 mM peptide injected
Method: Mouse cerebellar granule neurons were cultured for 14 days under conditions that promoted their maturation to a fully excitable state. These neurons were Whole cell patched and subjected to voltage clamp and current clamp protocols. In voltage clamp, neurons were depolarized four times for 16 milliseconds to 0 mV with 40 millisecond interpulse recoveries at −90 mV (left panels). In current clamp, positive current injection for 800 milliseconds was used to trigger firing of action potentials. A range of currents were tested, and only the recordings from currents giving highest frequency and amplitude of action potentials are shown (right panels).

[2] = system: mutant VGSC in which the fast inactivation particle was disabled (Nav1.6); test: Long-term inactivation of mutant VGSC with disabled fast inactivation particle, whole cell voltage clamp; type: cell-based; conditions: single cycle of membrane depolarization
Method: . Nav1.6 currents were analyzed in cells without FHFs (left panels—FIG. 7) or after transient transfection with a DNA vector expressing full-length FHF2A protein (right panels—FIG. 7).

[3] = system: TTX-resistant Nav1.6; test: Voltage dependence of steady state inactivation of Nav1.6 in Neuro2A cells; type: cell-based
Method: A Neuro2A cell expressing TTX-resistant Nav1.6 and transfected to express FHF2A was analyzed for the voltage dependence of steady state inactivation, long-term inactivation, and activation, using specific voltage command protocols. For steady state inactivation, cells were held at different “test command” voltages for 60 milliseconds followed immediately by further depolarization to 0 mV; the residual peak current derives from channels not inactivated (i.e. still available). For long term inactivation, cells were held at different “test command” voltages for 60 milliseconds, with each test command followed by 40 millisecond recovery at −90 mV before depolarization to 0 mV; peak current derives from channels that have not undergone long-term inactivation. […]
(§1) Neuro2A cells expressing TTX-resistant Nav1.6 were analyzed for TTX-resistant sodium currents following whole cell patch clamp using pipette solution containing peptide corresponding to N-terminal residues 2-21 of FHF2A (referred to as ANTD, for A-type N-terminal domain). Peptide injected cells were subjected to four 16 millisecond depolarization cycles (0 mV) separated by 40 millisecond recovery periods (−90 mV), and peak inward Nav1.6-mediated sodium currents were recorded for each depolarization.

[4] = system: TTX-resistant Nav1.6; test: Whole cell voltage clamp of Nav1.6 currents in Neuro2A cells: long-term inactivation through repeated depolarization cycles; type: cell-based
Method: […]. Nav1.6 currents were analyzed in cells without FHFs (upper panels) or after transient transfection with a DNA vector expressing full-length FHF2A protein (lower panels). The holding voltage was −90 mV. Cells were subjected to two 6 millisecond depolarizations at 0 mV separated by −90 mV interpulse recovery periods of 0.5 to 20 msec (left panels). All 40 command sweeps are shown.
Neuro2A cells expressing TTX-resistant Nav1.6 were transfected with DNA expression vectors for FHF1A, FHF1B, FHF2A, FHF2B, or FHF4B. Transfected cells in the presence of TTX were subjected to four 16 millisecond depolarization cycles (0 mV) separated by 40 millisecond recovery periods (−90 mV), and peak inward Nav1.6-mediated sodium currents were recorded for each depolarization.
A Neuro2A cell expressing TTX-resistant Nav1.6 and transfected to express FHF2A was analyzed for the voltage dependence of steady state inactivation, long-term inactivation, and activation, using specific voltage command protocols. For steady state inactivation, cells were held at different “test command” voltages for 60 milliseconds followed immediately by further depolarization to 0 mV; the residual peak current derives from channels not inactivated (i.e. still available). For long term inactivation, cells were held at different “test command” voltages for 60 milliseconds, with each test command followed by 40 millisecond recovery at −90 mV before depolarization to 0 mV; peak current derives from channels that have not undergone long-term inactivation. For activation, cells were depolarized to different “test command” voltages, and peak inward currents were converted to percent maximum conductance to reflect percentage of channels transiently activated.
as §1

[5] = four 16 msec depolarization cycles at 0 mV separated by 40 msec recoveries at -90 mV, cells transfected with FHF expression vector

**Q.** “AAAIASSLIRQKRQAREREK [ANTD peptide, peptide corresponding to N-terminal residues 2-21 of FHF2A]” was tested. Which “action potentials generated upon current injection” value ([1]; current clamp, 800 msec positive current injection) did it give?
**A.** Its value is “only a single action potential”.

**Q.** And the inward sodium currents ([1]; voltage clamp, four 16 msec depolarizations to 0 mV, 40 msec recoveries at -90 mV)?
**A.** Its inward sodium currents is “decrease with each cycle of depolarization”.

**Q.** And the outward potassium currents ([1]; voltage clamp, four depolarization cycles)?
**A.** Its outward potassium currents is “unaffected”.

**Q.** And the “channels driven into long-term inactivation” value [2]?
**A.** The value was “nearly all”.

**Q.** What about the “effect on voltage dependence of steady state (fast) inactivation of Nav1.6” value [3] of the same molecule?
**A.** The value was “no significant effect”.

**Q.** What about the “long-term inactivation of Nav1.6” value ([4]; 0.5 mM peptide in pipette solution, four 16 msec depolarization cycles, 40 msec recoveries) of the same molecule?
**A.** Its value is “induced long-term inactivation, albeit to lesser degree”.

**Q.** And the “long-term inactivation of Nav1.6” value ([4]; 1 mM peptide in pipette solution, four 16 msec depolarization cycles, 40 msec recoveries)?
**A.** The value was “robust accumulation into long-term inactivation”.

**Q.** What about the “dose dependence of peptide-induced long-term inactivation” value ([4]; 1 mM versus 0.5 mM) of the same molecule?
**A.** Its value is “dose dependent”.

**Q.** And the “onset of long-term inactivation” value ([4]; 1 millimolar peptide, compared with native protein)?
**A.** The value was “faster onset of long-term inactivation than the native protein”.

**Q.** Which “channels driven into long-term inactivation” value [2] does the source give for “FHF2A: full-length FHF2A protein, fibroblast growth factor homologous factor, expressed from a transfected DNA vector (AAAIASSLIRQKRQAREREK)” here?
**A.** Its value is “nearly all channels being driven into long-term inactivation”.

**Q.** And the “effect on voltage dependence of steady state (fast) inactivation of Nav1.6” value [3]?
**A.** The value was “depolarizing shift”.

**Q.** And the “percentage of channels that undergo long-term inactivation” value ([4]; 60 msec test command, 40 msec recovery at -90 mV, then 0 mV, not increased by further depolarization)?
**A.** The value was 35-40%.

**Q.** And the “long-term inactivation of Nav1.6” value [4, 5]?
**A.** Its value is “induce long-term inactivation”.

**Q.** And the “long-term inactivation of Nav1.6” value ([4]; four 16 msec depolarization cycles at 0 mV separated by 40 msec recoveries at -90 mV, cells transfected with FHF expression vector, listed as FHF2A protein)?
**A.** Its value is “channels accumulate into a long-term inactivated state with each depolarization cycle; also recorded: induces both long-term inactivation”.

**Q.** What about the “voltage at which long-term inactivation occurs relative to steady state inactivation” value ([4]; test command voltage protocols, FHF2A-transfected cell) of the same molecule?
**A.** Its value is “far more depolarized voltage than steady state inactivation”.

**Q.** And the “fraction of channels that do not rapidly recover from inactivation” value ([4]; two 6 msec depolarizations at 0 mV, -90 mV interpulse recovery 0.5 to 20 msec, cells transfected with FHF vector)?
**A.** Its value is “approximately one-third”.

B1: FHF4B: B-type fibroblast growth factor homologous factor expressed from a DNA expression vector (protein)
chain: MVKPVPLFRRTDFKLLLCNHKDLFFLRVSKLLDCFSPKSMWFLWNIFSKGTHMLQCLCGKSLKKNKNPTDPQLKGIVTRLYCRQGYYLQMHPDGALDGTKDDSTNSTLFNLIPVGLRVVAIQGVKTGLYIAMNGEGYLYPSELFTPECKFKESVFENYYVIYSSMLYRQQESGRAWFLGLNKEGQAMKGNRVKKTKPAAHFLPKPLEVAMYREPSLHDVGETVPKPGVTPSKSTSASAIMNGGKPVNKSKTT
**Q.** B1 was tested. Which “long-term inactivation of Nav1.6” value [4, 5] did it give?
**A.** Its value is “do not”.

B2: FHF1B: B-type fibroblast growth factor homologous factor expressed from a DNA expression vector (protein)
chain: MESKEPQLKGIVTRLFSQQGYFLQMHPDGTIDGTKDENSDYTLFNLIPVGLRVVAIQGVKASLYVAMNGEGYLYSSDVFTPECKFKESVFENYYVIYSSTLYRQQESGRAWFLGLNKEGQIMKGNRVKKTKPSSHFVPKPIEVCMYREPSLHEIGEKQGRSRKSSGTPTMNGGKVVNQDST
**Q.** For B2, which “long-term inactivation of Nav1.6” value [4, 5] is on record?
**A.** Its value is “do not”.

B3: FHF2B: B-type fibroblast growth factor homologous factor expressed from a DNA expression vector (protein)
chain: MALLRKSYSEPQLKGIVTKLYSRQGYHLQLQADGTIDGTKDEDSTYTLFNLIPVGLRVVAIQGVQTKLYLAMNSEGYLYTSELFTPECKFKESVFENYYVTYSSMIYRQQQSGRGWYLGLNKEGEIMKGNHVKKNKPAAHFLPKPLKVAMYKEPSLHDLTEFSRSGSGTPTKSRSVSGVLNGGKSMSHNEST
**Q.** With B3 as the molecule, how does the “long-term inactivation of Nav1.6” value [4, 5] read?
**A.** The value was “do not”.
